Here are results for 2 molecules from article PMC5772984 (International journal for parasitology, 2017).

Data set [1] has as its system UGA1 N-luciferase expressing C. parvum. Kind of data set: Nluc expressing C. parvum in vitro growth inhibition in infected HCT-8 cells. The format is cell-based. The conditions noted are these: Cryptosporidium parvum.
Data set [2] relates to Cryptosporidium. The conditions noted are these: 1–5 year old malnourished children; ref Amadi et al., 2002; cited from earlier work.
Data set [3] relates to C. parvum. The settings on record: Cryptosporidium parvum.
Data set [4] deals with Tufts University TU502 C. hominis. The conditions noted are these: Cryptosporidium hominis, HCT-8.
Data set [5] has as its system Cryptosporidium parvum. The conditions noted are these: oral dosing; ref Hulverson et al., 2017; cited from earlier work.
In data set [6] the target is UGA1 N-luciferase expressing C. parvum. The settings on record: read-out: EC50 in vitro against C. parvum; ref Hulverson et al., 2017; cited from earlier work.
The test system of data set [7] is CRL-8155 cells. The settings on record: ref Hulverson et al., 2017; cited from earlier work.
In data set [8] the test system is HepG2 cells. The conditions noted are these: ref Hulverson et al., 2017; cited from earlier work.

Where two headings read alike, the source gives them in different places.

Regarding `CC(=O)Oc1ccccc1C(=O)Nc1ncc([N+](=O)[O-])s1` [Nitazoxanide, nitazoxanide], the EC50 (in general, the midpoint of the concentration-response curve) in data set [1] stood at 3.1 µM; in data set [3] (HCT-8, Bunch Grass Farm C. parvum, high-content imaging) it was 1900 nM; in data set [3] (HCT-8, University of Arizona C. parvum) it was 1680 nM; in data set [4] it was 2780 nM. The “Effectiveness in children with cryptosporidiosis” value in data set [2] is given as “approximately 30%”.
Take `CCOc1ccc2cc(-c3nn(CC4CCNCC4)c4ncnc(N)c34)ccc2n1` [BKI 1318]: the “Efficacy when orally dosed in vivo in mice” value in data set [5] is “lacked efficacy”. The EC50 in data set [6] was 3.2 µM. Besides, the In vitro cytotoxicity result in data set [7] and in data set [8] was “no toxicity” in each case.
